In ChEMBL document CHEMBL1201862, “PubChem BioAssay data set” (2004):
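Growth conditions: 96-well plates. Treatment: test compound, 48 hours, 5 concentrations. Analysis: linear interpolation between bracketing concentrations; unreached endpoints set to highest concentration. Here, GI50 denotes the concentration required for 50% inhibition of growth.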 Activity calls are given as the source filed them. Rule as the data show it: active = GI50 up to about 1.1 µM and inactive = higher.

Key:
Experiment in all cases: growth of human tumour cells (NCI), 48 h
SW-620 = test system: SW-620
KM12 = test system: KM12
HCT-15 = test system: HCT-15
RPMI-8226 = test system: RPMI-8226
DLD-1 = test system: DLD-1
SNB-19 = test system: SNB-19
HOP-62 = test system: HOP-62
SK-MEL-2 = test system: SK-MEL-2
NCI-H522 = test system: NCI-H522
COLO 205 = test system: COLO 205
LXFL 529 = test system: LXFL 529
HCC 2998 = test system: HCC 2998
ACHN = test system: ACHN
SK-OV-3 = test system: SK-OV-3
HCT-116 = test system: HCT-116
A498 = test system: A498
NCI-H23 = test system: NCI-H23
OVCAR-3 = test system: OVCAR-3
EKVX = test system: EKVX
SF-295 = test system: SF-295
NCI-H226 = test system: NCI-H226
HOP-92 = test system: HOP-92
DMS-273 = test system: DMS-273
SF-268 = test system: SF-268
K562 = test system: K562
IGROV-1 = test system: IGROV-1
SNB-78 = test system: SNB-78
UACC-62 = test system: UACC-62
TK-10 = test system: TK-10
SK-MEL-28 = test system: SK-MEL-28
OVCAR-4 = test system: OVCAR-4
SN12C = test system: SN12C
CAKI-1 = test system: CAKI-1
OVCAR-5 = test system: OVCAR-5
RXF 631 = test system: RXF 631
SF-539 = test system: SF-539
RXF 393 = test system: RXF 393
HL-60 = test system: HL-60
OVCAR-8 = test system: OVCAR-8
HT-29 = test system: HT-29
U-251 = test system: U-251
Malme-3M = test system: Malme-3M
MOLT-4 = test system: MOLT-4
M14 = test system: M14
SR = test system: SR
KM-20L2 = test system: KM-20L2
UO-31 = test system: UO-31
SNB-75 = test system: SNB-75
A549 = test system: A549
UACC-257 = test system: UACC-257
CCRF-CEM = test system: CCRF-CEM
NCI-H460 = test system: NCI-H460
786-0 = test system: 786-0
DMS-114 = test system: DMS-114
SK-MEL-5 = test system: SK-MEL-5
LOX IMVI = test system: LOX IMVI
M19-MEL = test system: M19-MEL

## N#CC(C(=O)/C(=N\NC(N)=O)C(C#N)c1ccccc1)c1ccccc1 (stereo unspecified)
SW-620
  GI50: > 100 µM (inactive)
KM12
  GI50: > 100 µM (inactive)
HCT-15
  GI50: > 100 µM
RPMI-8226
  GI50: > 100 µM (inactive)
DLD-1
  GI50: > 100 µM (inactive)
SNB-19
  GI50: > 100 µM (inactive)
HOP-62
  GI50: > 100 µM (inactive)
SK-MEL-2
  GI50: > 100 µM (inactive)
NCI-H522
  GI50: > 100 µM (inactive)
COLO 205
  GI50: > 100 µM (inactive)
LXFL 529
  GI50: > 100 µM (inactive)
HCC 2998
  GI50: > 100 µM (inactive)
ACHN
  GI50: > 100 µM (inactive)
SK-OV-3
  GI50: > 100 µM (inactive)
HCT-116
  GI50: > 100 µM (inactive)
A498
  GI50: > 100 µM (inactive)
NCI-H23
  GI50: > 100 µM (inactive)
OVCAR-3
  GI50: > 100 µM (inactive)
EKVX
  GI50: > 100 µM (inactive)
SF-295
  GI50: > 100 µM (inactive)
NCI-H226
  GI50: > 100 µM (inactive)
HOP-92
  GI50: > 100 µM (inactive)
DMS-273
  GI50: > 100 µM (inactive)
SF-268
  GI50: > 100 µM (inactive)
K562
  GI50: > 100 µM (inactive)
IGROV-1
  GI50: > 100 µM (inactive)
SNB-78
  GI50: > 100 µM (inactive)
UACC-62
  GI50: > 100 µM (inactive)
TK-10
  GI50: > 100 µM (inactive)
SK-MEL-28
  GI50: > 100 µM (inactive)
OVCAR-4
  GI50: > 100 µM (inactive)
SN12C
  GI50: > 100 µM (inactive)
CAKI-1
  GI50: > 100 µM (inactive)
OVCAR-5
  GI50: > 100 µM (inactive)
RXF 631
  GI50: > 100 µM (inactive)
SF-539
  GI50: > 100 µM (inactive)
RXF 393
  GI50: > 100 µM (inactive)
HL-60
  GI50: > 100 µM (inactive)
OVCAR-8
  GI50: > 100 µM (inactive)
HT-29
  GI50: > 100 µM (inactive)
U-251
  GI50: > 100 µM (inactive)
Malme-3M
  GI50: > 100 µM (inactive)
MOLT-4
  GI50: > 100 µM (inactive)
M14
  GI50: > 100 µM (inactive)
SR
  GI50: > 100 µM (inactive)
KM-20L2
  GI50: > 100 µM (inactive)
UO-31
  GI50: > 100 µM (inactive)
SNB-75
  GI50: > 100 µM (inactive)
A549
  GI50: > 100 µM (inactive)
UACC-257
  GI50: > 100 µM (inactive)
CCRF-CEM
  GI50: > 100 µM (inactive)
NCI-H460
  GI50: > 100 µM (inactive)
786-0
  GI50: > 100 µM (inactive)

## CCN(CC)CCNc1ccc2nnn3c4ccc(C)cc4c(=O)c1c23
SW-620
  GI50: 4.63 µM (inactive)
KM12
  GI50: 4.56 µM (inactive)
HCT-15
  GI50: 9.62 µM
RPMI-8226
  GI50: 4.62 µM (inactive)
DLD-1
  GI50: 6.08 µM (inactive)
SNB-19
  GI50: 12.7 µM (inactive)
HOP-62
  GI50: 14.9 µM (inactive)
SK-MEL-2
  GI50: 13.7 µM (inactive)
NCI-H522
  GI50: 7.67 µM (inactive)
COLO 205
  GI50: 5.87 µM (inactive)
LXFL 529
  GI50: 12 µM (inactive)
ACHN
  GI50: 5.45 µM (inactive)
SK-OV-3
  GI50: 10.9 µM (inactive)
HCT-116
  GI50: 3.78 µM (inactive)
A498
  GI50: 15.5 µM (inactive)
NCI-H23
  GI50: 11.7 µM (inactive)
OVCAR-3
  GI50: 13.2 µM (inactive)
DMS-114
  GI50: 9.12 µM (inactive)
SF-295
  GI50: 5.02 µM (inactive)
NCI-H226
  GI50: 10.8 µM (inactive)
HOP-92
  GI50: 6.55 µM (inactive)
SK-MEL-5
  GI50: 10.7 µM (inactive)
SF-268
  GI50: 10.2 µM (inactive)
K562
  GI50: 8.24 µM (inactive)
IGROV-1
  GI50: 10.4 µM (inactive)
SNB-78
  GI50: 10.9 µM (inactive)
UACC-62
  GI50: 14 µM (inactive)
TK-10
  GI50: 12.2 µM (inactive)
SK-MEL-28
  GI50: 15.5 µM (inactive)
LOX IMVI
  GI50: 3.61 µM (inactive)
OVCAR-4
  GI50: 12.1 µM (inactive)
SN12C
  GI50: 8 µM (inactive)
CAKI-1
  GI50: 13.2 µM (inactive)
OVCAR-5
  GI50: 6.71 µM (inactive)
RXF 631
  GI50: 5.28 µM (inactive)
SF-539
  GI50: 6.14 µM (inactive)
M19-MEL
  GI50: 14.6 µM (inactive)
HL-60
  GI50: 3.9 µM (inactive)
OVCAR-8
  GI50: 5.22 µM (inactive)
HT-29
  GI50: 4.14 µM (inactive)
U-251
  GI50: 11.5 µM (inactive)
Malme-3M
  GI50: 12.6 µM (inactive)
MOLT-4
  GI50: 3.07 µM (inactive)
M14
  GI50: 12.8 µM (inactive)
SR
  GI50: 3.37 µM (inactive)
KM-20L2
  GI50: 6.32 µM (inactive)
UO-31
  GI50: 10.2 µM (inactive)
SNB-75
  GI50: 10.8 µM (inactive)
A549
  GI50: 5.37 µM (inactive)
UACC-257
  GI50: 13.2 µM (inactive)
CCRF-CEM
  GI50: 4.16 µM (inactive)
NCI-H460
  GI50: 3.85 µM (inactive)
786-0
  GI50: 5.66 µM (inactive)
